Source: ChEMBL document CHEMBL5370598, “[3H]UR-JG102-A Radiolabeled Cyclic Peptide with High Affinity and Excellent Selectivity for the Neuropeptide Y Y4 Receptor” (J Med Chem, 2023)

Columns and labels:
[1] = target: T1, Neuropeptide Y receptor type 4 (Homo sapiens, UniProt P50391); experiment: Displacement of [3H]UR-KK200 from human Y4R expressed in CHO cells co-expressing Gqi5-mtAEQ; type: cell-based
[2] = target: T1, Neuropeptide Y receptor type 4; experiment: Agonist activity at human Y4R expressed in HEK293T cells by miniGsi assay relative to control; type: functional, cell-based; details: filed as agonist
[3] = target: T1, Neuropeptide Y receptor type 4; experiment: Agonist activity at human Y4R expressed in HEK293T cells by miniGsi assay; type: functional, cell-based
[4] = target: T2, Neuropeptide Y receptor type 5 (Homo sapiens, UniProt Q15761); experiment: Displacement of [3H]propionyl-pNPY from human Y5R expressed in HEC-1B cells; type: cell-based, HEC-1B cell line
T2 sequence (Q15761 whole entry): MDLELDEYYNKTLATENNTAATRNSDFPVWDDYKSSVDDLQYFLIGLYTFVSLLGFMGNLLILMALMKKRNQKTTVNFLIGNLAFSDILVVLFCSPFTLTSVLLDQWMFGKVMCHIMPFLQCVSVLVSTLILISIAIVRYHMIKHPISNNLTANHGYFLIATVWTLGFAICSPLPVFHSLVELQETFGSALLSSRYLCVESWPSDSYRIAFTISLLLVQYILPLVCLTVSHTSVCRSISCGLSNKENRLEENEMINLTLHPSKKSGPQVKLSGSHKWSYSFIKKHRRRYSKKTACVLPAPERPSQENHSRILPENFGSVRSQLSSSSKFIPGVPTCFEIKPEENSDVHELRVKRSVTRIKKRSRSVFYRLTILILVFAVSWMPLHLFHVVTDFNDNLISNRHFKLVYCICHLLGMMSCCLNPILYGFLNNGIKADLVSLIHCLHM

[5] = target: T3, Neuropeptide Y receptor type 2 (Homo sapiens, UniProt P49146); experiment: Displacement of [3H]propionyl-pNPY from human Y2R expressed in CHO cells; type: cell-based
T3 sequence (P49146 whole entry): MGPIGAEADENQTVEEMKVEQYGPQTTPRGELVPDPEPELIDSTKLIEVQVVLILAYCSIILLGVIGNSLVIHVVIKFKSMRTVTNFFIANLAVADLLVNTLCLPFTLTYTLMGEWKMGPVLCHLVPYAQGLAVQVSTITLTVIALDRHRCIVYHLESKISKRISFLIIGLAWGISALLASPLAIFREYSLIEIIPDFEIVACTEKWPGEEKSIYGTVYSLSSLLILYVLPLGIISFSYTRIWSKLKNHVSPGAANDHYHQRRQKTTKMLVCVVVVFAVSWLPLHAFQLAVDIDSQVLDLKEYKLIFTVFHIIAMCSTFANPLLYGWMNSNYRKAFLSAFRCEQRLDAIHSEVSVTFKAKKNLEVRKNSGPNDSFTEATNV

[6] = target: T4, Neuropeptide Y receptor type 1 (Homo sapiens, UniProt P25929); experiment: Displacement of [3H]UR-MK299 from human Y1R expressed in SK-N-MC cells; type: cell-based
T4 sequence (P25929 whole entry): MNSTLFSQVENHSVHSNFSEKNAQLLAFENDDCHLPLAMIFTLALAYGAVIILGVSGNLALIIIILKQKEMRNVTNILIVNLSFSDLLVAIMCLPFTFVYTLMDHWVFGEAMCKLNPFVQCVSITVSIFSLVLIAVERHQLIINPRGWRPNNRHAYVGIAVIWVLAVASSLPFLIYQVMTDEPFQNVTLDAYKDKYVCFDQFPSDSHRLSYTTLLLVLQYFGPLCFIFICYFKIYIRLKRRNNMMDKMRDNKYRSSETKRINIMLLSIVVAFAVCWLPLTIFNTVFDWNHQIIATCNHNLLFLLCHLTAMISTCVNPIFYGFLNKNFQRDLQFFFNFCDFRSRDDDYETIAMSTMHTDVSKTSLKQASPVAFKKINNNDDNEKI

[7] = target: T1, Neuropeptide Y receptor type 4; experiment: Agonist activity at human Y4R expressed in HEK293T cells incubated for 60 mins by cAMP CAMYEN assay; type: functional, cell-based; details: read-out: EC50
[8] = target: T1, Neuropeptide Y receptor type 4; experiment: Agonist activity at human Y4R expressed in CHO cells co-expressing Gqi5-mtAEQ by calcium2+ aequorin assay; type: functional, cell-based
[9] = target: T1, Neuropeptide Y receptor type 4; experiment: Agonist activity at human Y4R expressed in HEK293T cells incubated for 60 mins by cAMP CAMYEN assay relative to control; type: functional, cell-based; details: filed as agonist
[10] = target: T1, Neuropeptide Y receptor type 4; experiment: Agonist activity at human Y4R expressed in CHO cells co-expressing Gqi5-mtAEQ by calcium2+ aequorin assay relative to control; type: functional, cell-based; details: filed as agonist

T1 sequence (P50391 whole entry): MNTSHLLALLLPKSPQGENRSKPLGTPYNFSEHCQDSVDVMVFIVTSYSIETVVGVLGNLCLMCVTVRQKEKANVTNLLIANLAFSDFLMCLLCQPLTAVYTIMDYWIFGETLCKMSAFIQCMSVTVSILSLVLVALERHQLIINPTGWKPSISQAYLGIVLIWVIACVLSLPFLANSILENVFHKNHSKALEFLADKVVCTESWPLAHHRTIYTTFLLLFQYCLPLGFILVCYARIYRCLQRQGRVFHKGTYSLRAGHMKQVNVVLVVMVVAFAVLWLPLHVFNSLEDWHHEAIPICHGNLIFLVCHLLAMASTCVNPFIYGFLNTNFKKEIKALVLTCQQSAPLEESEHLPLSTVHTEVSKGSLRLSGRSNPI

Row | Compound | Ki ([1]; read-out: Ki) | Emax [2] | EC50 [3] | Ki ([4]; hec-1b cell line, read-out: Ki) | Ki ([4]; read-out: pKi (converted)) | Ki ([5]; cho, read-out: Ki) | Ki ([5]; read-out: pKi (converted)) | Ki ([6]; read-out: pKi (converted)) | Ki ([6]; sk-n-mc, read-out: Ki) | EC50 [7] | EC50 ([8]; read-out: EC50) | EC50 ([8]; read-out: pEC50 (converted)) | Emax [9] | Emax [10] | Ki ([1]; read-out: pKi (converted)) | Ki ([5]; read-out: Ki)
1 | CCC(=O)N[C@H]1CC(=O)NCCCCNC(=O)/N=C(\N)NCCC[C@@H](C(=O)N[C@@H](CC(C)C)C(=O)N[C@@H](CCCNC(=N)N)C(=O)N[C@@H](Cc2ccc(O)cc2)C(N)=O)NC(=O)[C@H](Cc2ccc(O)cc2)NC(=O)[C@H](CCCNC(=N)N)NC1=O | 0.11 nM | 46% | 8.1 nM | > 1000 nM | > 1000 nM | > 10000 nM | > 10000 nM | > 1000 nM | > 1000 nM | 0.2 nM | 23 nM | 20 nM | 83% | 64% | – | –
2 | CC(C)C[C@H](NC(=O)[C@@H]1CCCN/C(N)=N/C(=O)NCCCCNC(=O)[C@@H](N)CC(=O)N[C@@H](CCCNC(=N)N)C(=O)N[C@@H](Cc2ccc(O)cc2)C(=O)N1)C(=O)N[C@@H](CCCNC(=N)N)C(=O)N[C@@H](Cc1ccc(O)cc1)C(N)=O | 0.026 nM | 59% | 1.1 nM | > 1000 nM | > 1000 nM | > 10000 nM | > 10000 nM | > 1000 nM | > 1000 nM | – | 5 nM | – | – | 85% | 0.0245 nM | –
3 | CC(C)C[C@H](NC(=O)[C@@H]1CCCN/C(N)=N/C(=O)NCCCCNC(=O)[C@H](NC(=O)CCCN)CC(=O)N[C@@H](CCCNC(=N)N)C(=O)N[C@@H](Cc2ccc(O)cc2)C(=O)N1)C(=O)N[C@@H](CCCNC(=N)N)C(=O)N[C@@H](Cc1ccc(O)cc1)C(N)=O | 0.093 nM | 62% | 2.5 nM | > 1000 nM | > 1000 nM | – | 912 nM | > 1000 nM | > 1000 nM | – | 18 nM | – | – | 69% | 0.0912 nM | > 948 nM
4 | CCC(=O)N[C@@H]1CC(=O)NCCCCNC(=O)/N=C(\N)NCCC[C@@H](C(=O)N[C@@H](CC(C)C)C(=O)N[C@@H](CCCNC(=N)N)C(=O)N[C@@H](Cc2ccc(O)cc2)C(N)=O)NC(=O)[C@H](Cc2ccc(O)cc2)NC(=O)[C@H](CCCNC(=N)N)NC1=O | 0.12 nM | 64% | 2.6 nM | > 1000 nM | > 1000 nM | – | > 3160 nM | > 1000 nM | > 1000 nM | 0.11 nM | 22 nM | – | 81% | 70% | 0.11 nM | > 3000 nM
5 | CCC(=O)N[C@H]1CC(=O)N[C@@H](CCCNC(=N)N)C(=O)N[C@@H](Cc2ccc(O)cc2)C(=O)N[C@H](C(=O)N[C@@H](CC(C)C)C(=O)N[C@@H](CCCNC(=N)N)C(=O)N[C@@H](Cc2ccc(O)cc2)C(N)=O)CCCN/C(N)=N/C(=O)NCCCCNC1=O | 0.15 nM | 58% | 3.8 nM | > 1000 nM | > 1000 nM | > 10000 nM | > 10000 nM | > 1000 nM | > 1000 nM | 0.13 nM | 24 nM | 22.4 nM | 82% | 80% | – | –
6 | CC(C)C[C@H](NC(=O)[C@@H]1CCCN/C(N)=N/C(=O)NCCCCNC(=O)C[C@@H](N)C(=O)N[C@@H](CCCNC(=N)N)C(=O)N[C@@H](Cc2ccc(O)cc2)C(=O)N1)C(=O)N[C@@H](CCCNC(=N)N)C(=O)N[C@@H](Cc1ccc(O)cc1)C(N)=O | 0.031 nM | 68% | 0.89 nM | > 1000 nM | > 1000 nM | > 10000 nM | > 10000 nM | > 1000 nM | > 1000 nM | – | 11 nM | – | – | 63% | – | –
